In ChEMBL document CHEMBL5500371, “Arginine and tryptophan-rich dendritic antimicrobial peptides that disrupt membranes for bacterial infection in vivo” (Eur J Med Chem, 2024):
≈ marks a conversion by molar mass, not a printed value. Where a SMILES comes first, the peptide text is derived from it. Side-chain parts run from the residue outwards.

Assays:
Staphylococcus aureus = test: Antibacterial activity against Staphylococcus aureus ATCC 25923 assessed as inhibition of bacterial growth incubated for 20 hrs by broth microdilution method; assay type: functional
Bacillus subtilis = test: Antibacterial activity against Bacillus subtilis ATCC 23857 assessed as inhibition of bacterial growth incubated for 20 hrs by broth microdilution method; assay type: functional
Acinetobacter baumannii = test: Antibacterial activity against Acinetobacter baumannii ATCC 19606 assessed as inhibition of bacterial growth incubated for 20 hrs by broth microdilution method; assay type: functional
Klebsiella pneumoniae = test: Antibacterial activity against Klebsiella pneumoniae ATCC 700603 assessed as inhibition of bacterial growth incubated for 20 hrs by broth microdilution method; assay type: functional
Escherichia coli = test: Antibacterial activity against Escherichia coli ATCC 25922 assessed as inhibition of bacterial growth incubated for 20 hrs by broth microdilution method; assay type: functional
Pseudomonas aeruginosa = test: Antibacterial activity against Pseudomonas aeruginosa ATCC 27853 assessed as inhibition of bacterial growth incubated for 20 hrs by broth microdilution method; assay type: functional
Erythrocyte = test: Hemolytic activity in mouse erythrocytes assessed as 10% hemolysis incubated for 1 hr by absorbance based analysis; assay type: toxicity, cell-based
[1] = Cytotoxicity against HEK293T cells assessed as cell death measured after 1 hr by resazurin dye based analysis; assay type: toxicity, HEK-293T; conditions: human, HEK293T cells

| Compound | MIC (Staphylococcus aureus) [µM] | MIC (Bacillus subtilis) [µM] | MIC (Acinetobacter baumannii) [µM] | MIC (Klebsiella pneumoniae) [µM] | MIC (Escherichia coli) [µM] | MIC (Pseudomonas aeruginosa) [µM] | MHC10 (Erythrocyte) [µM] | CC50 at 1 h [1] [µM] |
| --- | --- | --- | --- | --- | --- | --- | --- | --- |
| N=C(N)NCCC[C@H](NC(=O)[C@@H](N)CCCNC(=N)N)C(=O)N[C@@H](CCCCN)C(=O)N[C@@H](Cc1c[nH]c2ccccc12)C(N)=O (H-RRKW-NH2) | > 128 | > 128 | > 128 | > 128 | > 128 | > 128 | > 256 | > 128 |
| H-WWKRR-NH2 | > 128 | 128 | > 128 | > 128 | > 128 | > 128 | > 256 | > 128 |
| N=C(N)NCCC[C@H](NC(=O)[C@H](CCCNC(=N)N)NC(=O)[C@H](CCCNC(=N)N)NC(=O)[C@H](CCCNC(=N)N)NC(=O)[C@H](CCCNC(=N)N)NC(=O)[C@H](CCCNC(=N)N)NC(=O)[C@H](CCCNC(=N)N)NC(=O)[C@H](CCCCNC(=O)[C@H](Cc1c[nH]c2ccccc12)NC(=O)[C@H](Cc1c[nH]c2ccccc12)NC(=O)[C@@H](N)Cc1c[nH]c2ccccc12)NC(=O)[C@H](Cc1c[nH]c2ccccc12)NC(=O)[C@H](Cc1c[nH]c2ccccc12)NC(=O)[C@@H](N)Cc1c[nH]c2ccccc12)C(N)=O | 16 (≈ 37.7 µg/mL) | 16 (≈ 37.7 µg/mL) | 32 (≈ 75.4 µg/mL) | 64 (≈ 151 µg/mL) | 32 (≈ 75.4 µg/mL) | 16 (≈ 37.7 µg/mL) | 17.53 | 41.9 |

Continued by falling MIC (Staphylococcus aureus), values first:

| MIC (Staphylococcus aureus) [µM] | MIC (Bacillus subtilis) [µM] | MIC (Acinetobacter baumannii) [µM] | MIC (Klebsiella pneumoniae) [µM] | MIC (Escherichia coli) [µM] | MIC (Pseudomonas aeruginosa) [µM] | Compound | MHC10 (Erythrocyte) [µM] | CC50 at 1 h [1] [µM] |
| --- | --- | --- | --- | --- | --- | --- | --- | --- |
| 16 (≈ 21.7 µg/mL) | 16 (≈ 21.7 µg/mL) | 128 (≈ 174 µg/mL) | > 128 | > 128 | > 128 | N=C(N)NCCC[C@H](NC(=O)[C@H](CCCNC(=N)N)NC(=O)[C@H](CCCNC(=N)N)NC(=O)[C@H](CCCCNC(=O)[C@H](Cc1c[nH]c2ccccc12)NC(=O)[C@@H](N)Cc1c[nH]c2ccccc12)NC(=O)[C@H](Cc1c[nH]c2ccccc12)NC(=O)[C@@H](N)Cc1c[nH]c2ccccc12)C(N)=O (H-WWK([Trp-Trp])RRR-NH2) | > 256 | > 128 |
| 16 | 8 | 32 | 32 | 16 | 32 | H-RRRRRRKWWWWW-NH2 | 42.8 | 55.1 |
| 16 (≈ 32.2 µg/mL) | 8 (≈ 16.1 µg/mL) | 32 (≈ 64.4 µg/mL) | 16 (≈ 32.2 µg/mL) | 16 (≈ 32.2 µg/mL) | 16 (≈ 32.2 µg/mL) | N=C(N)NCCC[C@H](NC(=O)[C@H](CCCNC(=N)N)NC(=O)[C@@H](N)CCCNC(=N)N)C(=O)NCCCC[C@H](NC(=O)[C@H](CCCNC(=N)N)NC(=O)[C@H](CCCNC(=N)N)NC(=O)[C@@H](N)CCCNC(=N)N)C(=O)N[C@@H](Cc1c[nH]c2ccccc12)C(=O)N[C@@H](Cc1c[nH]c2ccccc12)C(=O)N[C@@H](Cc1c[nH]c2ccccc12)C(=O)N[C@@H](Cc1c[nH]c2ccccc12)C(=O)N[C@@H](Cc1c[nH]c2ccccc12)C(N)=O | 91.08 | 41.4 |
